Patent US11920185B2, “Method of inactivating microbes by citraconic anhydride” (Roche Molecular Systems, Inc., priority 2015, dated 2024)
Like-named read-outs stand apart in the source and are kept apart here.

System: lambda bacteriophage GT11
Experiment: Titering (plaque assay) of citraconic anhydride-treated lambda bacteriophage on E. coli Y1088
Assay type: cell-based
Conditions: for Titer, Tricine, After 1 month / Titer, Tricine, Day 1: stored in 10 mM Tricine pH 8.3; for Titer, Tris, After 1 month / Titer, Tris, Day 1: stored in 10 mM Tris pH8.3; for Titer pfu/ml (at 1 month): stored one month at 4° C.
Description: In order to analyze lambda bacteriophage GT11 inactivation using citraconic anhydride (also referred to as “Cit” or “cit”), a titration was performed.
10 μl of working solution of citraconic anhydride in DMF was added to 1 ml lambda bacteriophage in SM buffer, which is 0.1 M NaCl, 10 mM MgSO^4, 50 mM Tris pH 7.5, 0.01% gelatin (Sambrook and Russell, supra, page A2.8) where the phage was provided at 1×10^7 pfu/ml). The reaction was performed at room temperature for 1 hour and then stored at 4° C. for 7 days to one month. The phage solutions were titered to determine the effect of the citraconic anhydride modification on the phage.
Titering of bacteriophage was performed as follows: The host bacterium, E. coli Y1088, was inoculated into 15 mls luria broth supplemented with 10 mM MgSO4 and 0.2% Maltose (w/v) using a 0.1% inoculum and incubated at 37° C. to an OD<=1. The cells were concentrated by centrifugation (10 minutes at 500×g) and the cell pellet resuspended in ½ volume of sterile 10 mM MgSO4. The E. coli cells were diluted to 0.5 OD600 with 10 mM MgSO4. The bacteriophage was serially diluted in SM Buffer as follows. Pipet 10 μL phage into the tube labeled 10^−2. Resuspend by vortexing. Using a new tip, pipet 10 μL of the 10^−2 dilution into the tube labeled 10^−4. Resuspend by vortexing. Repeat the 100-fold serial dilutions to the 10^−8 tube. From the 10^−8 tube, perform 10-fold dilutions to the 10^−9 and 10^−10 tubes. Add 100 μL of phage from the 10^−8 s to the 10^−9 tube, vortex, and add 100 μL from the 10^−9 tube to the 10^−10 tube. Vortex the 10^−10 tube. Add 300 μL E. coli to each of 5 sterile 17×100 mm Falcon polypropylene round bottom tubes (#352057) for each sample being titered. Add 100 μL of the diluted […] to the tube (dilutions 10^−4, 10^−6, 10^−8, 10^−9 and 10^−10). Let sit 10 minutes at room temperature. Incubate 10 minutes at 37° C. Meanwhile, label the NZCYM plates with the phage sample and the dilution. To the first tube still in the 37° C. heat block, add 3 mL top agar (from the bottle of top agar in the 50° C. bath), vortex the tube, and quickly pour onto the NZCYM plate. Swirl the plate quickly so the top agar covers the entire plate. Allow the top agar to solidify on the bench. Repeat with each tube. Incubate the plates at 37° C. overnight in an inverted position. The next day, count the plaques and calculate the titer by using the dilution which provides the most countable number of plaques.
This experiment tested the stability of citraconic anhydride (Cit)-treated lambda bacteriophage. Phage was inactivated using different Cit concentrations and stored for one month at 4° C.
Bacteriophage targets treated with different concentrations of Cit were stored in different buffers and then evaluated for their inactivation status. Targets were stored in either 10 mM Tris pH8.3 or 10 mM Tricine pH 8.3.

SMILES: CC1=CC(=O)OC1=O [citraconic anhydride]
- Day 1 - Titer: 6.7 × 10^6 pfu/ml
- Day 8 - Titer (1.1 μM final concentration, stored at 4° C.): 3.9 × 10^7 pfu/ml
- Day 1 - Titer (11 μM final concentration): 9.0 × 10^6 pfu/ml
- Day 8 - Titer (11 μM final concentration, stored at 4° C.): 2.9 × 10^7 pfu/ml
- Day 1 - Titer (0.11 mM final concentration): 5.5 × 10^6 pfu/ml
- Day 8 - Titer (0.11 mM final concentration, stored at 4° C.): 3.6 × 10^7 pfu/ml
- Day 1 - Titer (1.1 mM final concentration): 1.8 × 10^6 pfu/ml
- Day 8 - Titer (1.1 mM final concentration, stored at 4° C.): 2.0 × 10^7 pfu/ml
- Titer, Tricine, After 1 month (5.5 mM Cit): 3 × 10^3 pfu/ml
- Titer, Tricine, Day 1 (5.5 mM Cit): 1 × 10^3 pfu/ml
- Titer, Tris, After 1 month (5.5 mM Cit): 0 pfu/ml
- Titer, Tris, Day 1 (5.5 mM Cit): 1.5 × 10^3 pfu/ml
- Titer pfu/ml (Day 1) (5.5 mM final Cit concentration): 1.5 × 10^6 pfu/ml
- Titer pfu/ml (at 1 month) (5.5 mM final Cit concentration): 1.5 × 10^6 pfu/ml
- Titer, Tricine, After 1 month (11 mM Cit): 0 pfu/ml
- Titer, Tricine, Day 1 (11 mM Cit): 0 pfu/ml
- Titer, Tris, After 1 month (11 mM Cit): 0 pfu/ml
- Titer, Tris, Day 1 (11 mM Cit): 0 pfu/ml
- Titer pfu/ml (Day 1) (11 mM final Cit concentration): 0 pfu/ml
- Titer pfu/ml (at 1 month) (11 mM final Cit concentration): 0 pfu/ml
- Day 1 - Titer (11 mM final concentration in reaction with phage, 1 h room temperature, phage 1×10^7 pfu/ml in SM buffer): 0 pfu/ml
- Day 8 - Titer (11 mM final concentration, stored at 4° C.): 0 pfu/ml
- Phage inactivation (11 mM, persisted after 7 days): complete inactivation
- Titer, Tricine, After 1 month (22 mM Cit): 0 pfu/ml
- Titer, Tricine, Day 1 (22 mM Cit): 0 pfu/ml
- Titer, Tris, After 1 month (22 mM Cit): 0 pfu/ml
- Titer, Tris, Day 1 (22 mM Cit): 0 pfu/ml
- Titer pfu/ml (Day 1) (22 mM final Cit concentration): 0 pfu/ml
- Titer pfu/ml (at 1 month) (22 mM final Cit concentration): 0 pfu/ml
- Persistence of phage inactivation after storage (Cit-treatment at >=11 mM, storage in 10 mM Tris pH8.3 or 10 mM Tricine pH 8.3): provides inactivation for 1 month
- Persistence of phage inactivation (greater than or equal to 11 mM, stored at 4° C.): remain inactivated for 1 month
